Several values for one entry are separate records, joined by “and”; a condition that tells them apart may be missing. Identical values can stand only once.
Assays:
[1] = test system: intraocular tissue (retinal tissue incl. photoreceptor cell layer, vitreous body) of Zebrafish 7-day-old embryo; assay: Staining of intraocular tissue of Zebrafish fry by exposure to staining liquid, ocular tissue section observed by confocal microscope; assay type: in vivo; conditions: Zebrafish 7 dpf fry, 1 μg/mL, 1 hour exposure, fixed ocular section
[2] = Excitation and fluorescence wavelengths by fluorescence spectrometer FL4500; assay type: physicochemical; conditions: in nm (unit assumed)
[3] = aqueous solution: 10 mg/mL DMSO solution diluted to 1/500 with purified water (Examples 1 to 94)
[4] = values in a chloroform solution (Examples 95 to 106)

Structure (SMILES) | Staining ability [1] | λem (fluorescence wavelength) [2, 3] | λex (excitation wavelength) [2, 3] | λem (fluorescence wavelength) [2] | λex (excitation wavelength) [2] | Stained site [1] | λem (fluorescence wavelength) [2, 4] | λex (excitation wavelength) [2, 4]
CCN1C(=O)/C(=c2\s/c(=C/c3ccc(N(c4ccccc4)c4ccc5c(c4)C(C)(C)c4ccccc4-5)cc3)c(=O)n2CC(=O)O)SC1=S [Compound 32] | ++ | 640 | 558 |  |  |  |  | 
Cn1/c(=C/C=C/C2=[N+](CCCS(=O)(=O)[O-])CCS2)oc(=O)/c1=C/C=C1\SCCN1CCCS(=O)(=O)[O-].[Na+] [Compound 14] | ++ |  |  | 617 | 588 |  |  | 
CCN(CC)c1ccc2c(-c3ccc(S(=O)(=O)NCCC(=O)O)cc3S(=O)(=O)O)c3ccc(=[N+](CC)CC)cc-3oc2c1.[Na+] [Compound 95] | ++ | 578 and 590 | 509 and 528 |  |  |  |  | 
O=C(O)CCN1C(=O)/C(=C\c2ccc3c(c2)C2CCCC2N3Cc2ccccc2)SC1=S (stereo not drawn) [Compound 47] | ++ | 611 | 522 |  |  |  |  | 
O=C(O)CN1C(=O)/C(=C\c2cc(Br)c3c(c2)[C@@H]2CCC[C@@H]2N3c2ccc(Br)cc2)SC1=S [Compound 38] | ++ | 609 | 482 |  |  |  |  | 
CCOC(=O)CN1C(=O)/C(=C\c2ccc3c(c2)C2CCCC2N3c2ccccc2)SC1=S (stereo not drawn) [Compound 52] | ++ | 638 | 580 |  |  |  |  | 
O=C(O)CN1C(=O)/C(=C2C=C/C(=C\c3ccc4c(c3)C3CCCC3N4c3ccccc3)C\2)SC1=S (stereo not drawn) [Compound 106] | ∘ | 650 | 510 |  |  |  |  | 
CCN1C(=S)S/C(=c2/s/c(=C/c3cc(Br)c4c(c3)[C@@H]3CCC[C@@H]3N4c3ccc(Br)cc3)c(=O)n2CC(=O)O)C1=S [Compound 40] | ++ | 671 | 559 |  |  |  |  | 
O=C(O)C[n+]1c(/C=C/c2ccc3c(c2)C2CCCC2N3c2ccc(C=C(c3ccccc3)c3ccccc3)cc2)sc2ccccc21.[Br-] (stereo not drawn) [Compound 62] | ++ | 675 | 610 |  |  | 2 |  | 
CCOC(=O)CN1C(=O)/C(=C\c2cc(Br)c3c(c2)C2CCCC2N3c2ccc(Br)cc2)SC1=S (stereo not drawn) [Compound 50] | ++ | 580 | 482 |  |  |  |  | 
CCOC(=O)Cn1c(=Cc2sc3ccccc3[n+]2C)sc(=Cc2ccc3c(c2)C2CCCC2N3c2ccc(C=C(c3ccccc3)c3ccccc3)cc2)c1=O.[Br-] (stereo not drawn) [Compound 84] | ++ | 718 | 599 |  |  | 2 |  | 
CCC(/C=C1\Sc2c(ccc3ccccc23)N1CC)=C\c1sc2c3ccccc3ccc2[n+]1CC.[I-] [Compound 21] | ++ | 377 | 334 |  |  |  |  | 
CCOC(=O)Cn1c(=O)/c(=C\c2ccc3c(c2)C2CCCC2N3c2ccc3cc(OC)ccc3c2)s/c1=C1/SC(=O)N(CC)C1=O (stereo not drawn) [Compound 54] | ++ | 647 | 597 |  |  |  |  | 
O=C(O)CN1C(=O)/C(=C\c2cc(Br)c3c(c2)C2CCCC2N3Cc2ccccc2)SC1=S (stereo not drawn) [Compound 56] | ++ | 606 | 486 |  |  |  |  | 
Cc1ccc(C)c(Nc2ccc3c4c(cc(=O)n3C)-c3ccccc3C(=O)c24)c1 [Compound 121] | ∘ |  |  |  |  |  | 609 | 537
CCN1C=C/C(=C\C=C\c2oc3ccccc3[n+]2CC)c2ccccc21.[I-] [Compound 22] | ++ | 620 | 571 |  |  | 1 |  | 
COc1ccc(N2c3ccc(/C=C4\SC(=S)N(CC(=O)O)C4=O)cc3[C@@H]3CCC[C@@H]32)cc1 [Compound 34] | ++ | 648 | 571 |  |  |  |  | 
CCCCCCCCN1C(=O)S/C(=c2/s/c(=C/c3ccc4c(c3)C3CCCC3N4c3ccc(OC)cc3)c(=O)n2CC(=O)OCC)C1=O (stereo not drawn) [Compound 58] | ++ | 676 | 546 |  |  |  |  | 

Structure (SMILES) | Staining ability [1] | λem (fluorescence wavelength) [2, 3] | λex (excitation wavelength) [2, 3] | λem (fluorescence wavelength) [2] | λex (excitation wavelength) [2] | Stained site [1] | λem (fluorescence wavelength) [2, 4] | λex (excitation wavelength) [2, 4]
CCC(/C=C1\Sc2ccccc2N1CC)=C\c1sc2ccccc2[n+]1CC.[I-] [Compound 20] | ++ | 567 | 555 |  |  | 1 |  | 
CCCCc1ccc(Nc2ccc3c4c(cc(=O)n3C)-c3ccccc3C(=O)c24)cc1 [Compound 118] | ∘ |  |  |  |  |  | 634 | 540
COC(=O)CCc1ccc(Oc2cc(O)c3c(c2N)C(=O)c2ccccc2C3=O)c(C)c1 [Compound 113] | ∘ |  |  |  |  |  | 575 | 514
CC[n+]1c(C=c2sc(=Cc3ccc4c(c3)C3CCCC3N4c3ccc(C=C(c4ccccc4)c4ccccc4)cc3)c(=O)n2-c2ccccc2)sc2ccccc21.[Br-] (stereo not drawn) [Compound 82] | +++ | 721 | 591 |  |  | 2 |  | 
CCN1C(=O)S/C(=c2/s/c(=C/c3ccc4c(c3)C3CCCC3N4c3ccccc3)c(=O)n2CC(=O)O)C1=O (stereo not drawn) [Compound 55] | ++ | 644 | 502 |  |  |  |  | 
O=C(O)CCN1/C(=C/C2=C(Cl)C(=C/c3sc4ccccc4[n+]3CCC(=O)O)/CCC2)Sc2ccccc21.[I-] [Compound 31] | ++ | 664 | 495 |  |  | 2 |  | 
COc1ccc(N2c3ccc(/C=C/c4sc5ccccc5[n+]4CCC(=O)O)cc3C3CCCC32)cc1 (stereo not drawn) [Compound 77] | ++ | 668 | 583 |  |  |  |  | 
CCCCNc1ccc2c3c(cccc13)C(=O)N(CCCC)C2=O [Compound 87] | ++ | 551 | 466 |  |  |  |  | 
O=C(O)C[n+]1c(/C=C/c2ccc3c(c2)C2CCCC2N3c2ccc(C=C(c3ccccc3)c3ccccc3)cc2)oc2ccccc21.[Br-] (stereo not drawn) [Compound 65] | ++ | 657 | 570 |  |  | 1 |  | 
COc1ccc(N2c3ccc(/C=C4/SC(=S)N(CCC(=O)O)C4=O)cc3C3CCCC32)cc1 (stereo not drawn) [Compound 44] | ++ | 651 | 564 |  |  |  |  | 
COc1ccc(Nc2ccc3c4c(cc(=O)n3C)-c3ccccc3C(=O)c24)cc1 [Compound 116] | ∘ |  |  |  |  |  | 584 | 537
CCN1C(=O)/C(=c2\s/c(=C/c3cc(Br)c4c(c3)C3CCCC3N4Cc3ccccc3)c(=O)n2CC(=O)O)SC1=S (stereo not drawn) [Compound 73] | ++ | 649 | 548 |  |  |  |  | 
C=CCN1C(=O)S/C(=c2/s/c(=C/c3ccc4c(c3)C3CCCC3N4c3ccccc3)c(=O)n2CC(=O)OCC)C1=O (stereo not drawn) [Compound 51] | ++ | 638 | 580 |  |  |  |  | 
O=C(O)CN1/C(=C/C2=C(Cl)C(=C/c3sc4ccccc4[n+]3CC(=O)O)/CCC2)Sc2ccccc21.[Br-] [Compound 25] | ++ | 671 | 635 |  |  | 1 |  | 
COc1ccc(N2c3ccc(/C=c4/s/c(=C5/SC(=O)N(Cc6ccccc6)C5=O)n(CC(=O)O)c4=O)cc3C3CCCC32)cc1 (stereo not drawn) [Compound 53] | ++ | 712 | 568 |  |  |  |  | 
CCN(CC)CC.O=S(=O)([O-])CCC[n+]1c(/C=C/C=C2\Sc3ccccc3N2CCCS(=O)(=O)O)sc2ccccc21 [Compound 19] | ++ | 576 | 545 |  |  | 1 |  | 
CCCCN1C(=O)/C(=c2\s/c(=C/c3ccc4c(c3)C3CCCC3N4c3ccccc3)c(=O)n2CC(=O)OCC)SC1=S (stereo not drawn) [Compound 69] | ++ | 609 | 653 |  |  |  |  | 
